Patent US11414677B2, “Methods and compositions for performing continuous directed evolution” (Massachusetts Institute of Technology, priority 2017, dated 2022)
Marks after values point to notes of the source that are not given here.

What was measured:
HEK293A cells = experiment: Resazurin assay to assess acute toxicity of common tissue culture antibiotics; format: cell-based, human; conditions: two-day treatment; for acute toxicity (cell viability by resazurin fluorescence): various concentrations
Description: FIGS. 46A-46D. Resazurin assay to assess acute toxicity of common tissue culture antibiotics. HEK293A cells were treated for two days with either G418 (FIG. 46A), puromycin (FIG. 46B), blasticidin (FIG. 46C), or hygromycin (FIG. 46D), and cell viability was analyzed by resazurin fluorescence.
A 96-well plate was seeded with HEK293A cells (˜15,000) and treated with either puromycin HCl (Corning), Hygromycin B (Thermo Fisher), Blasticidin S HCl (Thermo Fisher), or G418 (Enzo). Two days later, 10 μL of 0.1 mg/mL resazurin (MilliporeSigma) was added and incubated for 1.5 h. Media was transferred to a fresh 96-well plate and fluorescence was analyzed on a Bio-Tek Synergy H1 Hybrid Microplate Reader.

RFP.ΔAdPol.adenovirus = experiment: Time course of antibiotic inhibition of adenoviral replication; format: cell-based, Adenovirus type 5; conditions: treatment initiated 24 h post-infection
Excerpt: FIGS. 47A-47B. Time-course of antibiotic-mediated inhibition of adenoviral infection. HEK293A cells expressing wild-type AdPol were infected with RFP.ΔAdPol.adenovirus and treated with either a) puromycin, or b) blasticidin at various time points post-infection (h.p.i.=hours post-infection). After 2 days, the infections were harvested and titered by flow cytometry. Titers are given in infectious units per milliliter (IU/mL), defined as the volume of adenoviral supernatant required to induce fluorescence in a cell as analyzed by flow cytometry. Dashed line represents the limit of detection (L.O.D) of the assay. Titers below this limit are inaccurate due to the percentage of infected cells being below the 1% error threshold of flow cytometry.
RFP.ΔAdPol.adenovirus (TABLE 16) was used to infect a 24-well plate of wild-type AdPol cells (150,000 cells/well) (TABLE 17) at MOI=1, and either blasticidin or puromycin was added at various time points following the infection. Viral supernatants were harvested ˜48 h post-infection, and titered by flow cytometry as described above.

[1] = system: ΔAdPol.adenovirus encoding either tTA or RFP; experiment: tTA-induced resistance to antibiotic inhibition of adenoviral replication; format: cell-based, Adenovirus type 5; conditions: treatment 10 h post-infection
Description: FIGS. 48A-48D. tTA-induced resistance to antibiotic mediated inhibition of adenoviral infection. Either wild-type AdPol cells, TRE3G.puroR cells, or TRE3G.blastR cells were infected with ΔAdPol.adenovirus encoding either tTA (+tTA) or RFP (−tTA). Ten hours post-infection, wild-type AdPol cells were treated with either puromycin (FIG. 48A) or (FIG. 48B) blasticidin, TRE3G.puroR cells were treated with puromycin (FIG. 48C), and TRE3G.blastR cells were treated with blasticidin (FIG. 48D). After 2, days, the infections were harvested and titered by flow cytometry. Titers are given in infectious units per milliliter (IU/mL), defined as the volume of adenoviral supernatant required to induce fluorescence in a cell as analyzed by flow cytometry. Dashed line represents the limit of detection (L.O.D) of the assay. Titers below this limit are inaccurate owing to the percentage of infected cells being below the 1% error threshold of flow cytometry.
Either RFP.ΔAdPol.adenovirus, or tTA.mCherry.ΔAdPol.adenovirus (TABLE 16) was used to infect a 24-well plate of either wild-type AdPol cells, TRE3G.puroR cells, or TRE3G.blastR cells (150,000 cells/well) (TABLE 17) at MOI=1, and either puromycin or blasticidin was added 10 h post-infection. Viral supernatants were harvested ˜48 h post-infection, and titered by flow cytometry as described above.

[2] = system: endogenous tTA operator (pLVX-TRE3G.eGFP reporter); experiment: Reverse genetics of tTA variants with pLVX-TRE3G.eGFP reporter in HEK293A cells; format: cell-based, human; conditions: transient co-transfection with eGFP reporter, presence or absence of 20 μM dox
Excerpt: FIGS. 22A-22F. FIG. 22A. Serial-passaging schemes for evolving functional tTA variants that gain dox resistance in human cells. Two approaches to selection pressure were used, either with increasing dox concentrations (Trial 1) or a constant, moderate dox concentration (Trial 2). FIG. 22B. tTA-induced GFP expression in the presence of dox after each round of evolution for Trial 1. Phenotyping cells were infected with passaged viral populations and analyzed by flow cytometry. The percentage of infected GFP-positive cells at each passage in the presence of dox was normalized to the percentage of infected GFP-positive cells at each passage in the absence of dox. N.D.=not detectable owing to low viral titer. FIG. 22C. Non-reference allele frequencies for all mutations observed at >1% frequency over the course of the directed evolution experiment for Trial 1 (see FIG. 28 for Trial 2). […]
HEK-293A cells were seeded in a 12-well plate at ˜4×10^5 cells/well. […] 48 h post-transfection, cells were analyzed by flow cytometry (see above for sample preparation). Promoter activity was calculated based on the mean fluorescence intensity of GFP fluorescence, backgated for only mCherry-expressing cells.
HEK-293A cells were seeded in a 12-well plate (˜400,000 cells/well). […] 48 h post-transfection, samples were stained with 0.2 μg/mL DAPI, and analyzed on a BD LSR II analyzer.

[3] = system: AdGLΔPol adenoviral genome; experiment: Mutagenesis rate determination by serial passaging and deep sequencing of a 6.5 kb fragment; format: cell-based, Adenovirus type 5
Description: The mutagenic potential of AdPol variants was evaluated following a previously reported protocol (Uil T. G. et al., Nucleic Acids Res. 39, e30 (2011)). Briefly, a polymerase-deleted Ad5, AdGLΔPol, was subjected to 10 serial passages on cultures of 911 cells (Fallaux F. J. et al., Hum. Gene Ther. 7, 215-222 (1996)) expressing EP-Pol in order to accumulate mutations. After 10 serial passages, 911 cells expressing wild-type AdPol were infected in a 6-well plate at ˜50 plaque-forming units/well in order to amplify pools of 50 viral clones for sequencing. Using pools of 50 or fewer clonal viruses ensured that mutations present in only one clone will be present at a frequency above the threshold of detection. From each 50-clone viral pool, a 6.5-kb fragment was amplified and prepared for deep sequencing. Libraries were subjected to 32 cycles of single-read sequencing by an Illumina Genome Analyzer II.
The mutagenic potential of EP-Pol was evaluated following a previously reported protocol (Uil T. G. et al., Nucleic Acids Res., 39(5): e30 (2011)). Briefly, a polymerase-deleted Ad5, AdGLΔAdPol, was subjected to 10 serial passages on cultures of 911 cells expressing EP-Pol in order to accumulate mutations. After 10 serial passages, 911 cells expressing wild-type AdPol were infected in a 6-well plate at ˜50 plaque-forming units/well in order to amplify pools of 50 viral clones for sequencing. Using pools of 50 or fewer clonal viruses ensures that mutations present in only one clone will be present at a frequency above the threshold of detection. From each 50-clone viral pool, a 6.5 kb fragment was amplified and prepared for deep sequencing. Libraries were subjected to 32 cycles of single-read sequencing by an Illumina Genome Analyzer II (GA-II).

CN[C@@H]1[C@@H](O)[C@@H](O[C@@H]2[C@@H](O)[C@H](O[C@H]3O[C@H]([C@@H](C)O)[C@@H](O)[C@H](O)[C@H]3N)[C@@H](N)C[C@H]2N)OC[C@]1(C)O [G418]
acute toxicity (cell viability by resazurin fluorescence) (HEK293A cells): only mildly toxic at the highest concentrations

COc1ccc(C[C@H](N)C(=O)N[C@H]2[C@@H](O)[C@H](n3cnc4c(N(C)C)ncnc43)O[C@@H]2CO)cc1 [puromycin]
inhibition of adenoviral replication (RFP.ΔAdPol.adenovirus): Neither puromycin nor blasticidin were able to inhibit adenoviral replication | dynamic range of inhibitory concentrations (HEK293A cells): less than two orders of magnitude | acute toxicity (cell viability by resazurin fluorescence) (HEK293A cells): completely toxic | effect on ΔAdPol.adenovirus replication ([1]; TRE3G.puroR cell line): equally toxic to both tTA-expressing and RFP-expressing ΔAdPol.adenovirus | effect on ΔAdPol.adenovirus replication ([1]; wild-type AdPol cell line): inhibited both RFP-expressing and tTA-expressing ΔAdPol.adenovirus replication

E147K: tTA variant with single amino acid substitution E147K, fixed in Trial 1
dox-resistance of tTA variant [2]: confer dox-resistance

H100Y: tTA variant with single amino acid substitution H100Y, fixed in Trial 2
dox-resistance of tTA variant [2]: confer dox-resistance

B1: EP-Pol (protein)
chain: MALAQAHRARRLHAEAPDSGDQPPRRRVRQQPTRAAPAPARARRRRAPAPSPGGSGAPPTSGGSPASPLLDASSKDTPAAHRPPRGTVVAPRGCGLLQAIDAATNQPLEIRYHLDLARALTRLCEVNLQELPPDLTPRELQTMDSSHLRDVVIKLRPPRADIWTLGSRGVVVRSTVTPLEQPDGQGQAAEVEDHQPNPPGEGLKFPLCFLVRGRQVNLVQDVQPVHRCQYCARFYKSQHECSARRRDFYFHHINSHSSNWWREIQFFPIGSHPRTERLFVTYDVETYTWMGAFGKQLVPFMLVMKFGGDEPLVTAARDLAANLGWDRWEQDPLTFYCITPEKMAIGRQFRTFRDHLQMLMARDLWSSFVASNPHLADWALSEHGLSSPEELTYEELKKLPSIKGIPRFLELYIVGHNINGYDEIVLAAQVINNRSEVPGPFRITRNFMPRAGKILFNDVTFALPNPRSKKRTDFLLWEQGGCDDTDFKYQYLKVMVRDTFALTHTSLRKAAQAYALPVEKGCCAYQAVNQFYMLGSYRSEADGFPIQEYWKDREEFVLNRELWKKKGQDKYDIIKETLDYCALDVQVTAELVNKLRDSYASFVRDAVGLTDASFNVFQRPTISSNSHAIFRQIVFRAEQPARSNLGPDLLAPSHELYDYVRASIRGGRCYPTYLGILREPLYVYDICGMYASALTHPMPWGPPLNPYERALAARAWQQALDLQGCKIDYFDARLLPGVFTVDADPPDETQLDPLPPFCSRKGGRLCWTNERLRGEVATSVDLVTLHNRGWRVHLVPDERTTVFPEWRCVAREYVQLNIAAKERADRAKNQTLRSIAKLLSNALYGSFATKLDNKKIVFSDQMDAATLKGITAGQVNIKSSSFLETDNLSAEVMPAFQREYSPQQLALADSDAEESEDERAPTPFYSPPSGTPGHVAYTYKPITFLDAEEGDMCLHTLERVDPLVDNDRYPSHLASFVLAWTRAFVSEWSEFLYEEDRGTPLEDRPLKSVYGDTDSLFVTERGHRLMETRGKKRIKKHGGNLVFDPERPELTWLVECETVCGACGADAYSPESVFLAPKLYALKSLHCPSCGASSKGKLRAKGHAAEGLDYDTMVKCYLADAQGEDRQRFSTSRTSLKRTLASAQPGAHPFTVTQTTLTRTLRPWKDMTLARLDEHRLLPYSESRPNPRNEEICWIEMPYPYDVPDYA
modifications: HA tag
Substitution load per million bp ([3]; 6020 bp analyzed, 27.3 clones estimated): 365 per million bp | mutations introduced into the genome ([3]; adenoviral genome ~35 kb): ~1.3 mutations per infected cell pe | Substitutions per Ad genome per viral generation ([3]; assuming a genome size of 36 kb, 27.3 genomes, 10 passages = 10 generations): 1.31** | mutation rate relative to the error rate of wild-type AdPol evaluated by the same method ([3]; comparison with Uil et al. 2011): ~370 fold | mutation rate ([3]; next-generation sequencing of a 6.5 kb region in a small pool of passaged clones): approximately 3.7×10^−5 per base per cell infection cycle
